Read-outs that look alike come from different tables or passages of the source.
Columns and labels:
[1] = target: T1, Androgen Receptor (Homo sapiens, UniProt P10275+P40337, T878A); experiment: Androgen Receptor ELISA assay (PathScan AR ELISA) in LNCaP cells: AR degradation, Dmax and DC50; format: cell-based; conditions: for DC50: concentration that caused 50% Androgen Receptor degradation; for Dmax: highest percentage of Androgen Receptor degradation observed
T1 construct: Compounds have been evaluated in this assay in LNCaP and/or VCaP cells utilizing similar protocols; endogenous in cells; host or cells: LNCaP cells

[2] = target: T2, Androgen Receptor (Homo sapiens, UniProt P10275); experiment: Androgen Receptor ELISA assay (PathScan AR ELISA) in VCaP cells: AR degradation, Dmax and DC50; format: cell-based; conditions: for DC50: read-out: VCaP DC50; for Dmax: VCaP, read-out: VCaP Dmax (%)
T2 construct: endogenous in cells; host or cells: VCaP cells
T2 sequence (P10275 1-920): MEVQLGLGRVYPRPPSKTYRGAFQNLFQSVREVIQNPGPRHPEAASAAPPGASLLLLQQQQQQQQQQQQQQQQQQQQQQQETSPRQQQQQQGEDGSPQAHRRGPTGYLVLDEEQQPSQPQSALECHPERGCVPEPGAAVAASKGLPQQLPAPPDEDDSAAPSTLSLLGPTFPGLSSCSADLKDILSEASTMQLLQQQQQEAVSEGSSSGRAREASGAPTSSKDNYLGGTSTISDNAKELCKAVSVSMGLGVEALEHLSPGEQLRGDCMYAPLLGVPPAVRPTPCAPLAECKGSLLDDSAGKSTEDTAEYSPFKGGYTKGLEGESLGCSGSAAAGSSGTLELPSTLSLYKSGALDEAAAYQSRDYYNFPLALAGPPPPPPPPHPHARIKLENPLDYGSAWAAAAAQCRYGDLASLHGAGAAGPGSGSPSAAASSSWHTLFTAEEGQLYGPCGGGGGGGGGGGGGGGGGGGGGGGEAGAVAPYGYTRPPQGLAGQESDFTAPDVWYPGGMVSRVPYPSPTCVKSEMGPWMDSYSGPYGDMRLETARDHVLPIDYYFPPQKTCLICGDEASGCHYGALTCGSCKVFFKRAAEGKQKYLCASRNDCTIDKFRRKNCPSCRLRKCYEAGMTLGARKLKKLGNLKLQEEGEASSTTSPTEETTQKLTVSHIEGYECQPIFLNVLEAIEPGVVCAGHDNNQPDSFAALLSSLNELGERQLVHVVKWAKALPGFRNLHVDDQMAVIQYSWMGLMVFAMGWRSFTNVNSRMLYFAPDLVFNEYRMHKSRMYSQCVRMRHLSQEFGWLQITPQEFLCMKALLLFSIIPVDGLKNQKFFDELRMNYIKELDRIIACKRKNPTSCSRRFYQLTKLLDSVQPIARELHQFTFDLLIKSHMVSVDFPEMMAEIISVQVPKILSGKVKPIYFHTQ
Outline: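 VCaP cells, 30,000/well, grown ≥3 days in phenol red-free RPMI with 5% charcoal-stripped FBS; compound added in 0.1% DMSO with 0.1 nM R1881, 7 half-log doses, 24 h. Lysate AR quantified by PathScan sandwich ELISA, HRP/TMB read at 450 nm, giving DC50 and Dmax.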

T1 sequence (P10275 whole entry T878A): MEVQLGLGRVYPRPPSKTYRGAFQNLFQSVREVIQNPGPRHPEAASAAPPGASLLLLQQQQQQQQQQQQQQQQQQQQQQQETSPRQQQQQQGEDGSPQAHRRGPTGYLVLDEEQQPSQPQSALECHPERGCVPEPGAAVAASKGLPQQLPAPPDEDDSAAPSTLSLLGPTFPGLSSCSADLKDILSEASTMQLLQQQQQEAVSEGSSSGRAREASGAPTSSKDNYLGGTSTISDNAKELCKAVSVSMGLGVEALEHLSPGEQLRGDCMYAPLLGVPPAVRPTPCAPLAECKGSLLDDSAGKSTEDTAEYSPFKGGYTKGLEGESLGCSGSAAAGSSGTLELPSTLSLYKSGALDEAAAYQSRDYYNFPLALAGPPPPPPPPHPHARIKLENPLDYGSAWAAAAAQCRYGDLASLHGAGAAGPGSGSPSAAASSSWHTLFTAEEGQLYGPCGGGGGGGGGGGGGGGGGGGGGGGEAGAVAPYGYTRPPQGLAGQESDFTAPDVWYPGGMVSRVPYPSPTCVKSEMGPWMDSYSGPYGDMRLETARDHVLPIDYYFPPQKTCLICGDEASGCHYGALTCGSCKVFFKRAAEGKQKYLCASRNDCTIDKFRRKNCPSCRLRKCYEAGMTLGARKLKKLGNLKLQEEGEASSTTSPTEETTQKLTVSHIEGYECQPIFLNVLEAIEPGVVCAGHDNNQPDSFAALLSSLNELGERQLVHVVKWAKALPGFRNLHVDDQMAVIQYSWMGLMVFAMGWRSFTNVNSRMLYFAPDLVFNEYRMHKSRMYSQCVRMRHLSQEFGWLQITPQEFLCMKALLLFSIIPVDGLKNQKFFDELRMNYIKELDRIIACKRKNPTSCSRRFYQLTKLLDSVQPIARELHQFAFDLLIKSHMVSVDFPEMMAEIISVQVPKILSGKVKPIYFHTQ
T1 sequence (P40337 whole entry): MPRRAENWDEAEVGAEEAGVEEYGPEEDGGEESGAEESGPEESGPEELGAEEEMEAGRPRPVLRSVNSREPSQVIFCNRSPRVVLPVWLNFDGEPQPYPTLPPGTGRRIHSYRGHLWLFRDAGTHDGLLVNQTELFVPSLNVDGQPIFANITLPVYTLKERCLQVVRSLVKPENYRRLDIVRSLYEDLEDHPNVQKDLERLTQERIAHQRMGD
T1 sequence (Q15369 whole entry partner): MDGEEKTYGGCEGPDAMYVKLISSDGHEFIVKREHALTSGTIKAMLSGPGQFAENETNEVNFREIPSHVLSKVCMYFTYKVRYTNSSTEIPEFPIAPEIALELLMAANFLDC
T1 sequence (Q15370 whole entry partner): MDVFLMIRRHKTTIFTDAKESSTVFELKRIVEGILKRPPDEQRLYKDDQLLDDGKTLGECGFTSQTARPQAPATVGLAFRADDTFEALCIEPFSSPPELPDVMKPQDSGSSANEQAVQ

## Cc1ncsc1-c1ccc(CNC(=O)[C@@H]2C[C@@H](O)CN2C(=O)[C@@H](NC(=O)COCCCOCCCCCOc2ccc(N3C(=S)N(c4ccc(C#N)c(C(F)(F)F)c4)C(=O)C3(C)C)cc2F)C(C)(C)C)cc1 [Example 3, (2S,4R)-1-[(2S)-2-[2-(3-{[5-(4-{3-[4-cyano-3-(trifluoromethyl)phenyl]-5,5-dimethyl-4-oxo-2-sulfanylideneimidazolidin-1-yl}-2-fluorophenoxy)pentyl]oxy}propoxy)acetamido]-3,3-dimethylbutanoyl]-4-hydroxy-N-{[4-(4-methyl-1,3-thiazol-5-yl)phenyl]methyl}pyrrolidine-2-carboxamide]
[1]
  DC50: < 0.05 µM
  Dmax: > 71%

## Cc1ncsc1-c1ccc(CNC(=O)[C@@H]2C[C@@H](O)CN2C(=O)[C@@H](NC(=O)COCCCOCCCCCOc2ccc(N3C(=S)N(c4ccc([N+](=O)[O-])c(C(F)(F)F)c4)C(=O)C3(C)C)cc2)C(C)(C)C)cc1 [Example 5, (2S,4R)-1-[(2S)-2-[2-(3-{[5-(4-{5,5-dimethyl-3-[4-nitro-3-(trifluoromethyl)phenyl]-4-oxo-2-sulfanylideneimidazolidin-1-yl}phenoxy)pentyl]oxy}propoxy)acetamido]-3,3-dimethylbutanoyl]-4-hydroxy-N-{[4-(4-methyl-1,3-thiazol-5-yl)phenyl]methyl}pyrrolidine-2-carboxamide]
[1]
  DC50: 0.051 to 0.5 µM
  Dmax: > 71%

## Cc1cc(N2C(=O)C(C)(C)N(c3ccc(OCCCCCOCCCOCC(=O)N[C@H](C(=O)N4C[C@H](O)C[C@H]4C(=O)NCc4ccc(-c5scnc5C)cc4)C(C)(C)C)cc3)C2=S)ccc1C#N [Example 6, (2S,4R)-1-[(2S)-2-(2-{3-[(5-{4-[3-(4-cyano-3-methylphenyl)-5,5-dimethyl-4-oxo-2-sulfanylideneimidazolidin-1-yl]phenoxy}pentyl)oxy]propoxy}acetamido)-3,3-dimethylbutanoyl]-4-hydroxy-N-{[4-(4-methyl-1,3-diiazol-5-yl)phenyl]methyl}pyrrolidine-2-carboxamid]
[1]
  DC50: < 0.05 µM
  Dmax: > 71%

## Cc1ncsc1-c1ccc(CNC(=O)[C@@H]2C[C@@H](O)CN2C(=O)[C@@H](NC(=O)COCCCOCCCCCOc2ccc(N3C(=S)N(c4ccc(C#N)c(F)c4)C(=O)C3(C)C)cc2)C(C)(C)C)cc1 [Example 7]
[1]
  DC50: < 0.05 µM
  Dmax: 51 to 70%

## CC(=O)O[C@@H]1C[C@@H](C(=O)N[C@@H](C)c2ccc(-c3scnc3C)cc2)N(C(=O)[C@H](C(C)C)N2Cc3ccc(OCCN4CCN(c5ccc(C(=O)N[C@H]6C(C)(C)[C@H](Oc7ccc(C#N)c(Cl)c7)C6(C)C)cn5)CC4)cc3C2=O)C1 [Example 857, (3R,5S)-1-((S)-2-(6-(2-(4-(5-(((1r,3r)-3-(3-chloro-4-cyanophenoxy)-2,2,4,4-tetramethylcyclobutyl)carbamoyl)pyridin-2-yl)piperazin-1-yl)ethoxy)-1-oxoisoindolin-2-yl)-3-methylbutanoyl)-5-(((S)-1-(4-(4-methylthiazol-5-yl)phenyl)ethyl)carbamoyl)pyrrolidin-3-yl acetate]
[2]; VCaP cells, Table 36
  DC50: > 0.501 µM
[2]
  Dmax: < 25%

## Cc1ncsc1-c1ccc([C@H](C)NC(=O)[C@H]2C[C@H](O)CN2C(=O)[C@@H](NC(=O)CN2C3CCC2CN(CCCCc2ccc(C(=O)N[C@H]4C(C)(C)[C@H](Oc5ccc(C#N)c(Cl)c5)C4(C)C)cc2)C3)C(C)(C)C)cc1 [Example 858, (2R,4S)-1-((2S)-2-(2-(3-(4-(4-(((1r,3r)-3-(3-chloro-4-cyanophenoxy)-2,2,4,4-tetramethylcyclobutyl)carbamoyl)phenyl)butyl)-3,8-diazabicyclo[3.2.1]octan-8-yl)acetamido)-3,3-dimethylbutanoyl)-4-hydroxy-N-((S)-1-(4-(4-methylthiazol-5-yl)phenyl)ethyl) pyrrolidine-2-carboxamide]
[2]; VCaP cells, Table 36
  DC50: > 0.501 µM
[2]
  Dmax: < 25%

## Cc1ncsc1-c1ccc([C@H](CO)NC(=O)[C@@H]2C[C@@H](O)CN2C(=O)[C@@H](NC(=O)CN2CCN(CCCCc3ccc(C(=O)N[C@H]4C(C)(C)[C@H](Oc5ccc(C#N)c(Cl)c5)C4(C)C)cc3)CC2)C(C)(C)C)cc1 [Example 859, (2S,4R)-1-((S)-2-(2-(4-(4-(4-(((1r,3r)-3-(3-chloro-4-cyanophenoxy)-2,2,4,4-tetramethylcyclobutyl)carbamoyl)phenyl)butyl)piperazin-1-yl)acetamido)-3,3-dimethylbutanoyl)-4-hydroxy-N-((R)-2-hydroxy-1-(4-(4-methylthiazol-5-yl)phenyl)ethyl) pyrrolidine-2-carboxamide]
[2]; VCaP cells, Table 36
  DC50: < 0.05 µM
  Dmax: > 71%

## Cc1ncsc1-c1ccc([C@H](C)NC(=O)[C@@H]2C[C@@H](O)CN2C(=O)[C@@H](NC(=O)CN[C@H]2C[C@H](N3CCN(c4ccc(C(=O)N[C@H]5C(C)(C)[C@H](Oc6ccc(C#N)c(Cl)c6)C5(C)C)cn4)CC3)C2)C(C)(C)C)cc1 [Example 860, N-((1r,3R)-3-(3-chloro-4-cyanophenoxy)-2,2,4,4-tetramethylcyclobutyl)-6-(4-((1S,3R)-3-((2-(((S)-1-((2S,4R)-4-hydroxy-2-(((S)-1-(4-(4-methylthiazol-5-yl)phenyl)ethyl)carbamoyl)pyrrolidin-1-yl)-3,3-dimethyl-1-oxobutan-2-yl)amino)-2-oxoethyl)amino)cyclobutyl)piperazin-1-yl)nicotinamide]
[2]; VCaP cells, Table 36
  DC50: < 0.05 µM
[2]
  Dmax: 51 to 70%

## Cc1ncsc1-c1ccc([C@H](C)NC(=O)[C@@H]2C[C@@H](O)CN2C(=O)[C@@H](NC(=O)CN[C@H]2C[C@@H](N3CCN(c4ccc(C(=O)N[C@H]5C(C)(C)[C@H](Oc6ccc(C#N)c(Cl)c6)C5(C)C)cn4)CC3)C2)C(C)(C)C)cc1 [Example 861, N-((1r,3R)-3-(3-chloro-4-cyanophenoxy)-2,2,4,4-tetramethylcyclobutyl)-6-(4-((1R,3S)-3-((2-(((S)-1-((2S,4R)-4-hydroxy-2-(((S)-1-(4-(4-methylthiazol-5-yl)phenyl)ethyl)carbamoyl)pyrrolidin-1-yl)-3,3-dimethyl-1-oxobutan-2-yl)amino)-2-oxoethyl)amino)cyclobutyl)piperazin-1-yl)nicotinamide]
[2]; VCaP cells, Table 36
  DC50: < 0.05 µM
[2]
  Dmax: 51 to 70%

## Cc1ncsc1-c1ccc([C@H](C)NC(=O)[C@@H]2C[C@@H](OC(=O)CCC(=O)O)CN2C(=O)[C@@H](NC(=O)COCCN2CCN(c3ccc(C(=O)N[C@H]4C(C)(C)[C@H](Oc5ccc(C#N)c(Cl)c5)C4(C)C)cn3)CC2)C(C)(C)C)cc1 [Example 862, 4-(((3R,5S)-1-((S)-2-(2-(2-(4-(5-(((1r,3r)-3-(3-chloro-4-cyanophenoxy)-2,2,4,4-tetramethylcyclobutyl)carbamoyl)pyridin-2-yl)piperazin-1-yl)ethoxy)acetamido)-3,3-dimethylbutanoyl)-5-(((S)-1-(4-(4-methylthiazol-5-yl)phenyl)ethyl)carbamoyl)pyrrolidin-3-yl)oxy)-4-oxobutanoic acid]
[2]; VCaP cells, Table 36
  DC50: < 0.05 µM
  Dmax: > 71%

## [2H]C(Nc1ccc(C(=O)N[C@H]2C(C)(C)[C@H](Oc3ccc(C#N)c(Cl)c3)C2(C)C)cc1)C([2H])([2H])C([2H])([2H])C([2H])([2H])C([2H])([2H])OCC(=O)N[C@H](C(=O)N1C[C@H](O)C[C@H]1C(=O)N[C@@H](C)c1ccc(-c2scnc2C)cc1)C(C)(C)C (stereo partly drawn) [Example 863]
[2]; VCaP cells, Table 36
  DC50: < 0.05 µM
  Dmax: > 71%

## C/C(=N\OCCN1CCN(CC(=O)N[C@H](C(=O)N2C[C@H](O)C[C@H]2C(=O)N[C@@H](C)c2ccc(-c3scnc3C)cc2)C(C)(C)C)CC1)c1cc(C(=O)N[C@@H](C)Cn2ccc(-c3ccc(C#N)c(Cl)c3)n2)n[nH]1 [Example 864, N-((S)-1-(3-(3-Chloro-4-cyanophenyl)-1H-pyrazol-1-yl)propan-2-yl)-5-((E)-1-((2-(4-(2-(((S)-1-((2S,4R)-4-hydroxy-2-(((S)-1-(4-(4-methylthiazol-5-yl)phenyl)ethyl)carbamoyl)pyrrolidin-1-yl)-3,3-dimethyl-1-oxobutan-2-yl)amino)-2-oxoethyl)piperazin-1-yl)ethoxy)imino)ethyl)-1H-pyrazole-3-carboxamide]
[2]; VCaP cells, Table 36
  DC50: < 0.05 µM
  Dmax: < 25%

From US11427548B2 (Arvinas Operations, Inc., priority 2015, dated 2022)
